Test results taken from patent publication US9932340B2, “Substituted indoles” (AbbVie Inc., priority 2014, dated 2018).

Target: SUV420H1 enzyme (Homo sapiens, UniProt Q4FZB7)
Experiment: TR-FRET SAH SUV420H1 enzyme inhibition assay
Type: biochemical
Settings: Histone Peptide H4(8-30)me1 and SAM, overnight at room temp, TR-FRET detection of SAH, read-out: TR-FRET SAH_SUV420H1 IC50
Outline: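 SUV420H1 (90 nM) preincubated 30 min with compound (3-fold dilutions, 50 to 0.00075 μM), then H4(8-30)me1 peptide 5 nM and SAM 4 nM added, overnight at room temp. SAH product detected by TR-FRET with Tb anti-SAH antibody and Oregon Green-SAH in RIPA buffer, 4 h; IC50 from Hill fit, asymptotes fixed 0-100%.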

Sequence of SUV420H1 enzyme (Q4FZB7 whole entry): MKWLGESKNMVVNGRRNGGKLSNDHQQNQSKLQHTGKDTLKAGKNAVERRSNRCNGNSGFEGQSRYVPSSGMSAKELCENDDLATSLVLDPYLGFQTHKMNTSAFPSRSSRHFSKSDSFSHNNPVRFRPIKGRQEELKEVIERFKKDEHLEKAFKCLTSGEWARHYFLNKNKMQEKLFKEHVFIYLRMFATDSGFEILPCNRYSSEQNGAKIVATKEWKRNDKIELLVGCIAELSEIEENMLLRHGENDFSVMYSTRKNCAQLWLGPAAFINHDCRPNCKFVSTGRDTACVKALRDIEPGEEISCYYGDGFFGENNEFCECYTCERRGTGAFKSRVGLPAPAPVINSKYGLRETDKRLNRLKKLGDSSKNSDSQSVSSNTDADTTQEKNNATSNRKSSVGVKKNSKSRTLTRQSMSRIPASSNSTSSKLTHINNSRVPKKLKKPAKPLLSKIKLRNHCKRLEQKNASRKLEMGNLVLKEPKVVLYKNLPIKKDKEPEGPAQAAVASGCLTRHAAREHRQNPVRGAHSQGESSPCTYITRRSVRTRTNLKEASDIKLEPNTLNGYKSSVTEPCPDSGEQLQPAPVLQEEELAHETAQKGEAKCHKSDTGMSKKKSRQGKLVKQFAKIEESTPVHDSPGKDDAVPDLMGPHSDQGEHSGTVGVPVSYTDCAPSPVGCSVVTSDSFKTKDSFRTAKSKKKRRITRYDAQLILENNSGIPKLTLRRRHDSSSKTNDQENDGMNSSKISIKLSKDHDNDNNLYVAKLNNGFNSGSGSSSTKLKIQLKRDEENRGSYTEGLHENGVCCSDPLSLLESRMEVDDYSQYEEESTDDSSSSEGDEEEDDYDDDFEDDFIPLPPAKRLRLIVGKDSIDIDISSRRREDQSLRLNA

Compared with `Cn1ccc(C(=O)NCc2cc3cc(Cl)cc(Cn4cnc5c(N)ncnc54)c3[nH]2)n1` [Example 151, N-({7-[(6-amino-9H-purin-9-yl)methyl]-5-chloro-1H-indol-2-yl}methyl)-1-methyl-1H-pyrazole-3-carboxamide], `Nc1ncnc2c1ncn2Cc1cc(Cl)cc2cc(CNC(=O)c3ccccn3)[nH]c12` [Example 195, N-({7-[(6-amino-9H-purin-9-yl)methyl]-5-chloro-1H-indol-2-yl}methyl)pyridine-2-carboxamide] is higher in IC50: 6750 nM for the first, > 50000 nM for the second.

Going from `Cc1noc(C)c1C(=O)NCc1cc2cc(-c3cccc(C(=O)NC4CC4)c3)cc(Cn3cnc4c(N)ncnc43)c2[nH]1` [Example 178, N-({7-[(6-amino-9H-purin-9-yl)methyl]-5-[3-(cyclopropylcarbamoyl)phenyl]-1H-indol-2-yl}methyl)-3,5-dimethyl-1,2-oxazole-4-carboxamide] to `Cc1noc(C)c1C(=O)NCc1cc2cc(-c3cccc(C(N)=O)c3)cc(Cn3cnc4c(N)ncnc43)c2[nH]1` [Example 173, N-({7-[(6-amino-9H-purin-9-yl)methyl]-5-(3-carbamoylphenyl)-1H-indol-2-yl}methyl)-3,5-dimethyl-1,2-oxazole-4-carboxamide], the IC50 falls from 116 nM to 41.2 nM (2.8-fold).

Going from `CS(=O)(=O)c1ccccc1C(=O)NCc1cc2cc(Cl)cc(Cn3cnc4c(N)ncnc43)c2[nH]1` [Example 265, N-({7-[(6-amino-9H-purin-9-yl)methyl]-5-chloro-1H-indol-2-yl}methyl)-2-(methylsulfonyl)benzamide] to `CCc1ccccc1C(=O)NCc1cc2cc(Cl)cc(Cn3cnc4c(N)ncnc43)c2[nH]1` [Example 296, N-({7-[(6-amino-9H-purin-9-yl)methyl]-5-chloro-1H-indol-2-yl}methyl)-2-ethylbenzamide], the IC50 falls from 2140 nM to 623 nM (3.4-fold). The second is the more potent here.

Compared with `COc1ccccc1C(=O)NCc1cc2cc(Cl)cc(Cn3cnc4c(N)ncnc43)c2[nH]1` [Example 260, N-({7-[(6-amino-9H-purin-9-yl)methyl]-5-chloro-1H-indol-2-yl}methyl)-2-methoxybenzamide], `Cc1cccc(C(=O)NCc2cc3cc(Cl)cc(Cn4cnc5c(N)ncnc54)c3[nH]2)c1` [Example 247, N-({7-[(6-amino-9H-purin-9-yl)methyl]-5-chloro-1H-indol-2-yl}methyl)-3-methylbenzamide] is 2.6-fold higher in IC50: 3550 nM for the first, 9380 nM for the second. The first is the more potent here.

`CC(=O)N1CC=C(c2cc(Cn3cnc4c(N)ncnc43)c3[nH]c(CNC(=O)c4ccc(C#N)cc4Cl)cc3c2)CC1` [Example 279, N-({5-(1-acetyl-1,2,3,6-tetrahydropyridin-4-yl)-7-[(6-amino-9H-purin-9-yl)methyl]-1H-indol-2-yl}methyl)-2-chloro-4-cyanobenzamide] and `N#Cc1ccc(C(=O)NCc2cc3cc(C4=CCC(F)(F)CC4)cc(Cn4cnc5c(N)ncnc54)c3[nH]2)c(Cl)c1` [Example 278, N-({7-[(6-amino-9H-purin-9-yl)methyl]-5-(4,4-difluorocyclohex-1-en-1-yl)-1H-indol-2-yl}methyl)-2-chloro-4-cyanobenzamide] are within 1.5-fold of each other in IC50: 49.3 nM for the first, 67.4 nM for the second.

Going from `Nc1ncnc2c1ncn2Cc1cc(Cl)cc2cc(CNCc3ccccc3Br)[nH]c12` [Example 208, 9-[(2-{[(2-bromobenzyl)amino]methyl}-5-chloro-1H-indol-7-yl)methyl]-9H-purin-6-amine] to `Nc1ncnc2c1ncn2Cc1cc(Cl)cc2cc(CNCc3ccccc3)[nH]c12` [Example 207, 9-({2-[(benzylamino)methyl]-5-chloro-1H-indol-7-yl}methyl)-9H-purin-6-amine], the IC50 falls from 1890 nM to 943 nM (2-fold).

Going from `Cc1cc(C#N)ccc1C(=O)NCc1cc2cc(C3=CCNCC3)cc(Cn3cnc4c(N)ncnc43)c2[nH]1` [Example 305, N-({7-[(6-amino-9H-purin-9-yl)methyl]-5-(1,2,3,6-tetrahydropyridin-4-yl)-1H-indol-2-yl}methyl)-4-cyano-2-methylbenzamide] to `N#Cc1ccc(C(=O)NCc2cc3cc(C4=CCC(F)(F)CC4)cc(Cn4cnc5c(N)ncnc54)c3[nH]2)c(F)c1` [Example 287, N-({7-[(6-amino-9H-purin-9-yl)methyl]-5-(4,4-difluorocyclohex-1-en-1-yl)-1H-indol-2-yl}methyl)-4-cyano-2-fluorobenzamide], the IC50 rises from 36.7 nM to 87.8 nM (2.4-fold).

Going from `Nc1ncnc2c1ncn2Cc1cc(Cl)cc2cc(CNC(=O)C3(O)CCC3)[nH]c12` [Example 112, N-({7-[(6-amino-9H-purin-9-yl)methyl]-5-chloro-1H-indol-2-yl}methyl)-1-hydroxycyclobutanecarboxamide] to `CC1(C(=O)NCc2cc3cc(Cl)cc(Cn4cnc5c(N)ncnc54)c3[nH]2)CC1` [Example 108, N-({7-[(6-amino-9H-purin-9-yl)methyl]-5-chloro-1H-indol-2-yl}methyl)-1-methylcyclopropanecarboxamide], the IC50 falls from 32000 nM to 17000 nM (1.9-fold).

First: CN1CCN(C(=O)c2ccc(-c3cc(Cn4cnc5c(N)ncnc54)c4[nH]c(CN)cc4c3)cc2)CC1 [Example 56, (4-{2-(aminomethyl)-7-[(6-amino-9H-purin-9-yl)methyl]-1H-indol-5-yl}phenyl)(4-methylpiperazin-1-yl)methanone]
Second: CS(=O)(=O)Nc1cccc(-c2cc(Cn3cnc4c(N)ncnc43)c3[nH]c(CN)cc3c2)c1 [Example 42, N-(3-{2-(aminomethyl)-7-[(6-amino-9H-purin-9-yl)methyl]-1H-indol-5-yl}phenyl)methanesulfonamide]
The IC50 of the first is 1.9-fold lower: 240 nM for the first, 450 nM for the second.

First: Nc1ncnc2c1ncn2Cc1cc(Cl)cc2cc(CNCc3c(Cl)cccc3Cl)[nH]c12 [Example 211, 9-[(5-chloro-2-{[(2,6-dichlorobenzyl)amino]methyl}-1H-indol-7-yl)methyl]-9H-purin-6-amine]
Second: Nc1ncnc2c1ncn2Cc1cc(Cl)cc2cc(CNC(=O)c3c(F)cccc3Cl)[nH]c12 [Example 227, N-({7-[(6-amino-9H-purin-9-yl)methyl]-5-chloro-1H-indol-2-yl}methyl)-2-chloro-6-fluorobenzamide]
The IC50 of the first is 12-fold higher: 9330 nM for the first, 790 nM for the second. The second is the more potent here.

First: CC1(C(=O)NCc2cc3cc(Cl)cc(Cn4cnc5c(N)ncnc54)c3[nH]2)CCCCC1 [Example 129, N-({7-[(6-amino-9H-purin-9-yl)methyl]-5-chloro-1H-indol-2-yl}methyl)-1-methylcyclohexanecarboxamide]
Second: Nc1ncnc2c1ncn2Cc1cc(Cl)cc2cc(CNC(=O)CCN3CCCC3)[nH]c12 [Example 122, N-({7-[(6-amino-9H-purin-9-yl)methyl]-5-chloro-1H-indol-2-yl}methyl)-3-(pyrrolidin-1-yl)propanamide]
The IC50 of the first is 6-fold higher: 28400 nM for the first, 4770 nM for the second. The second is the more potent here.

Compared with `Nc1ncnc2c1ncn2Cc1cc(Cl)cc2cc(CNC(=O)c3cnc4[nH]cnc4c3)[nH]c12` [Example 333, N-({7-[(6-amino-9H-purin-9-yl)methyl]-5-chloro-1H-indol-2-yl}methyl)-3H-imidazo[4,5-b]pyridine-6-carboxamide], `Nc1ncnc2c1ncn2Cc1cc(Cl)cc2cc(CNC(=O)c3ccc4snnc4c3)[nH]c12` [Example 329, N-({7-[(6-amino-9H-purin-9-yl)methyl]-5-chloro-1H-indol-2-yl}methyl)-1,2,3-benzothiadiazole-5-carboxamide] is 4.1-fold lower in IC50: 1700 nM for the first, 410 nM for the second.

First: Nc1ncnc2c1ncn2Cc1cc(Cl)cc2cc(CNC(=O)c3ccc4ncsc4c3)[nH]c12 [Example 335, N-({7-[(6-amino-9H-purin-9-yl)methyl]-5-chloro-1H-indol-2-yl}methyl)-1,3-benzothiazole-6-carboxamide]
Second: Cc1ccc(C(=O)NCc2cc3cc(Cl)cc(Cn4cnc5c(N)ncnc54)c3[nH]2)cc1 [Example 246, N-({7-[(6-amino-9H-purin-9-yl)methyl]-5-chloro-1H-indol-2-yl}methyl)-4-methylbenzamide]
The IC50 of the first is 18-fold lower: 401 nM for the first, 7290 nM for the second.

First: CC(=O)N1CCC(c2cc(Cn3cnc4c(N)ncnc43)c3[nH]c(CN)cc3c2)CC1 [Example 17, 1-(4-{2-(aminomethyl)-7-[(6-amino-9H-purin-9-yl)methyl]-1H-indol-5-yl}piperidin-1-yl)ethanone]
Second: NCc1cc2cccc(Cn3cnc4c(N)ncnc43)c2[nH]1 [Example 8, 9-{[2-(aminomethyl)-1H-indol-7-yl]methyl}-9H-purin-6-amine]
The IC50 of the first is 4.4-fold lower: 635 nM for the first, 2820 nM for the second. The first is the more potent here.

`Cc1ccsc1C(=O)NCc1cc2cc(Cl)cc(Cn3cnc4c(N)ncnc43)c2[nH]1` [Example 157, N-({7-[(6-amino-9H-purin-9-yl)methyl]-5-chloro-1H-indol-2-yl}methyl)-3-methylthiophene-2-carboxamide] and `CCc1oncc1C(=O)NCc1cc2cc(Cl)cc(Cn3cnc4c(N)ncnc43)c2[nH]1` [Example 181, N-({7-[(6-amino-9H-purin-9-yl)methyl]-5-chloro-1H-indol-2-yl}methyl)-5-ethyl-1,2-oxazole-4-carboxamide] are within 1.5-fold of each other in IC50: 2060 nM for the first, 2860 nM for the second.

Going from `CS(=O)(=O)Nc1ccc(-c2ccc(Cn3cnc4c(N)ncnc43)c3[nH]c(CN)cc23)cc1` [Example 85, N-(4-{2-(aminomethyl)-7-[(6-amino-9H-purin-9-yl)methyl]-1H-indol-4-yl}phenyl)methanesulfonamide] to `Nc1ncnc2c1ncn2Cc1cc(Cl)cc2cc(CNC(=O)Cc3cccnc3)[nH]c12` [Example 231, N-({7-[(6-amino-9H-purin-9-yl)methyl]-5-chloro-1H-indol-2-yl}methyl)-2-(pyridin-3-yl)acetamide], the IC50 rises from 605 nM to 2480 nM (4.1-fold).

First: Nc1ncnc2c1ncn2Cc1cc(Cl)cc2cc(CNC(=O)N3CCC(c4ccccc4F)C3)[nH]c12 (centres unmarked) [Example 319, N-({7-[(6-amino-9H-purin-9-yl)methyl]-5-chloro-1H-indol-2-yl}methyl)-3-(2-fluorophenyl)pyrrolidine-1-carboxamide]
Second: Cc1[nH]c2ccc(C(=O)NCc3cc4cc(Cl)cc(Cn5cnc6c(N)ncnc65)c4[nH]3)cc2c1C [Example 375, N-({7-[(6-amino-9H-purin-9-yl)methyl]-5-chloro-1H-indol-2-yl}methyl)-2,3-dimethyl-1H-indole-5-carboxamide]
The IC50 of the first is 3.7-fold lower: 3390 nM for the first, 12400 nM for the second.

For `Nc1ncnc2c1ncn2Cc1cccc2cc[nH]c12` [Example 5, 9-(1H-indol-7-ylmethyl)-9H-purin-6-amine], the IC50 was 13900 nM.
